The numbers were not newly measured in publication PMC8177746 (ACS applied materials & interfaces, 2020), which cites them from elsewhere.

The test system of this data set is Staphylococcus aureus. As to conditions: ref 14 (Lai et al.).

As for ILGPVLGLVSDTLDDVLGIL-NH2 [MH5], the MIC was 80 µM.

In general, MIC refers to the lowest concentration that inhibits growth of the organism.
